We go through seven compounds from patent publication US11407768B2, “AMPK activators” (Kallyope, Inc., priority 2020, dated 2022).

Where a name gives a salt, the structure may show the parent alone. Where only a bound is given, the exact number is not on record here.

A short description of series [1]: Pharmacokinetics (oral bioavailability) in C57BL/6 mice. Conditions: mouse, in vivo; for bioavailability: IV 1 mg/kg, PO 30 mg/kg; for Vd: following IV administration, 1 mg/kg, read-out: volume of distribution. On the procedure:
Selected compounds were tested for pharmacokinetics in C57BL/6 mice. Compounds 1, 4, 31, 32, 40, 55, 57 and 60 were dosed IV at 1 mg/kg as a formulation of 0.2 mg/mL in 5% DMSO+30% PEG400+65% water and were dosed PO at 30 mg/kg as a formulation of 3 mg/mL in 0.25% MC+5% Tween 80+0.02% SDS. Compound 2 was dosed IV at 1 mg/kg as a formulation of 0.2 mg/mL in 5% ethanol +95% saline and was dosed PO at 30 mg/kg as a formulation of 3 mg/mL in 0.25% MC+5% Tween 80+0.02% SDS.

For series [2], the system named is Chemotherapy-induced Intestinal Injury Model. Description: Diarrhea in mouse chemotherapy-induced (5FU) intestinal injury model. It is filed as in vivo, BALB/c mice. Conditions: 5FU 400 mg/kg IP; for Diarrhea Score Day 5 / Diarrhea Score Day 6: score 0-3. How it is done:
Compounds were formulated in vehicle (0.25% methyl cellulose, 5% Tween 80, 0.02% sodium dodecyl sulfate (SDS) in Hanks' Buffered Salt Solution with Ca' and Mg'). On day 1, either saline or a 400 mg/kg dose of 5-fluorouracil (5FU) in saline was administered by intraperitoneal injection to BALB/c mice. Starting on day 2, vehicle or compound was administered twice a day by oral gavage. From days 5 to 6 post-5FU, the animals were scored for diarrhea severity once a day. The diarrhea was scored 0-3 as follows: 0—normal consistency (black and solid), 1—soft (black and a bit lighter/yellow), 2—loosely shaped stool (yellowish and somewhat watery), 3—extreme diarrhea (very watery).

The target of series [3] is Recombinant AMPK α1/β1/γ1 complex (Homo sapiens (Human), UniProt Q13131+Q9Y478). Description: In vitro pAMPK1 kinase activation assay (ADP-Glo, SAMS peptide). Type of series: biochemical. Conditions: AMPK α1/β1/γ1 pre-activated with CAMKK2; 12-point curve; 15 min compound incubation. How it is done: Compound effect on AMPK enzyme activation was determined in a cell-free format with a 12-point concentration curve. The ADP-Glo detection system was used to determine phosphorylation of a SAMS peptide substrate. Recombinant AMPK α1/β1/γ1 complex was pre-activated by phosphorylation with CAMKK2 followed by incubated with compound for 15 minutes prior to the SAMS phosphorylation reaction. Activity curves and EC50 values were fitted by interpolation to an ATP:ADP standard curve as indicated by the ADP-Glo manufacturer using Prism software.

For series [4], the system named is Caco-2 cells. The series is described as follows: in vitro. How it is done:
(§1) Caco-2 cells purchased from ATCC were seeded onto […] (PET) in 96-well BD Insert plates at 1×10^5 cells/cm^2, and refreshed medium every 4-5 days until to the 21st to 28th day for confluent cell monolayer formation. The transport buffer in the study was HBSS with 10 mM HEPES at pH 7.40±0.05. Test compounds were tested at 2 μM bi-directionally in duplicate. Digoxin was tested at 10 μM bi-directionally in duplicate, while nadolol and metoprolol were tested at 2 μM in A to B direction in duplicate. Final DMSO concentration was adjusted to less than 1%.
(§2) The plate was incubated for 2 hours in CO2 incubator at 37±1° C., with 5% CO2 at saturated humidity without shaking. All samples were mixed with acetonitrile containing internal standard and were centrifuged at 4000 rpm for 10 min. Subsequently, 100 μL supernatant solution was diluted with 100 μL distilled water for LC/MS/MS analysis. Concentrations of test and control compounds in starting solution, donor solution, and receiver solution were quantified by LC/MS/MS, using peak area ratio of analyte/internal standard.

Series [5] relates to blood glucose levels. The series is described as follows: Intraperitoneal (IP) glucose tolerance test in mice. Type of series: in vivo. Conditions: for % Change in Average Total AUC (0-90 min) vs. Vehicle: 30 mpk PO, blood glucose, glucose 2 g/kg IP; for change in blood glucose AUC vs. vehicle / systemic AMPK activation (in words): 30 mpk for all compounds, up to 100 mpk for Compound 4. An excerpt:
Systemic AMPK target engagement in vivo can be assessed by measuring the glucose levels in blood following administration of compounds, whereby AMPK activation in skeletal muscle leads in a decrease in overall blood glucose levels.
Compounds were formulated in vehicle (0.25% methyl cellulose, 5% Tween 80, 0.02% sodium dodecyl sulfate (SDS) in Hanks' Buffered Salt Solution with Ca^2+ and Mg^2). Immediately prior to compound dosing, the tip of the tail was removed with scissors and a drop of blood was collected onto a glucometer strip (Bayer Contour Next) for a −1 hour blood glucose measure. The mice were then immediately administered vehicle or compound at 10 mL/kg PO. Approximately one hour later, mice were tail bled for a 0 min blood glucose reading, and then immediately after were administered D(+) glucose (2 g/kg, made up in saline) at 5 mL/kg IP. Tail bleeds were then performed on all mice at 20 min, 40 min, 60 min, and 90 min post D(+) glucose administration for blood glucose measures. Area under the curves (AUCs) for blood glucose measures were then calculated for each treatment from 0-90 mins.

Series [6] in a line: in vitro. Conditions: human. On the procedure:
as §1, §2

Series [7] deals with Madin-Darby Canine Kidney (MDCK) cells. The series is described as follows: In vitro MDCK epithelial permeability assay (calcium switch, FITC-dextran). Type of series: cell-based. Conditions: low calcium medium, MDCK monolayers. An excerpt:
In order to quantitatively measure the effects of transporter substrate AMPK activators on epithelial permeability in vitro, standard calcium switch protocols from the literature were adapted for use with Madin-Darby Canine Kidney (MDCK) cells grown on Corning Transwell inserts for use with fluorescein isothiocyanate-dextran, average molecular weight 4 kDa (FITC-dextran). FITC-dextran is a large, metabolically inert sugar molecule that is not readily transferrable across healthy epithelial barriers in vitro or in vivo. This compound has been tagged with a fluorophore to easily track its movement.
Briefly, MDCK cells were seeded onto Transwell inserts and grown according to manufacturer instructions until confluent. On the day of the experiment, a baseline reading was taken in standard growth media in which FITC-dextran was spiked into the apical chamber and the percent permeation of FITC-dextran from the apical to the basolateral chamber was measured. The inserts were then washed in low calcium medium (LCM) containing either vehicle or compound to remove residual FITC-dextran and calcium, and FITC-dextran was once again spiked into the apical chamber and the percent permeation in LCM was measured. […] The fold induction of FITC-dextran permeation to the basolateral chamber when each well was transferred from baseline growth media to LCM was then calculated.

Recombinant AMPK α1/β1/γ1 complex, sequence (Q13131 whole entry): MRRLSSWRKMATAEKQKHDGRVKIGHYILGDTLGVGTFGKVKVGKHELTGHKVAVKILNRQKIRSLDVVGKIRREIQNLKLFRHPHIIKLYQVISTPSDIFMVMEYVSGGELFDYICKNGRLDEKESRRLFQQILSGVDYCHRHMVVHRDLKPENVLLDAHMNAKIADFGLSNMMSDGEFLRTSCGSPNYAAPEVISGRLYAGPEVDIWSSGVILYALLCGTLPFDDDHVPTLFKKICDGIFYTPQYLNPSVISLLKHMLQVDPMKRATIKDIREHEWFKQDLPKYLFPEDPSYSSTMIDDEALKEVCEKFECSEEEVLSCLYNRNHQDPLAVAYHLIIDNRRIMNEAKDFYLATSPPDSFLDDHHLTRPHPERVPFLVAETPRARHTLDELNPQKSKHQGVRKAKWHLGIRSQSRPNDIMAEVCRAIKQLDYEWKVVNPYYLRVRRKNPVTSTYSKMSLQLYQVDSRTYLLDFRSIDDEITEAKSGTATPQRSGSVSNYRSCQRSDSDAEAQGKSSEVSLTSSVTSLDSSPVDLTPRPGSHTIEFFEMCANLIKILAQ
Recombinant AMPK α1/β1/γ1 complex, sequence (Q9Y478 whole entry): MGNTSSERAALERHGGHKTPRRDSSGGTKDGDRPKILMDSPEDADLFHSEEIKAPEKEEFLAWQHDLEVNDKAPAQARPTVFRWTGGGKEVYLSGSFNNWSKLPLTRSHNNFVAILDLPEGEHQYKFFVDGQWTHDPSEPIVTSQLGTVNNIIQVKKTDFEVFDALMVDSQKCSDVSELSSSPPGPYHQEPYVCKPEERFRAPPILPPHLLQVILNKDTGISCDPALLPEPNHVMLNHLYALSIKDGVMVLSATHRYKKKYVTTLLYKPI
Recombinant AMPK α1/β1/γ1 complex, sequence (P54619 whole entry partner): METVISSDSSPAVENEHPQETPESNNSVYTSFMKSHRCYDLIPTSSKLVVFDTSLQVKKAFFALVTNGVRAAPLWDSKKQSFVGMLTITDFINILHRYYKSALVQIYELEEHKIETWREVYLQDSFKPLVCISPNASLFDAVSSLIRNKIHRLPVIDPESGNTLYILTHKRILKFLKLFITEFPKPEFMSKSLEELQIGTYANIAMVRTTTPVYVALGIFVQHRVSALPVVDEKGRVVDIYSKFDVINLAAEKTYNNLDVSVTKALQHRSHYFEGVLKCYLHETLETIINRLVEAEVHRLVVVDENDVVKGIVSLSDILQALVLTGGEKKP

For `O=C(NCC[N+]12CCN(CC1)CC2)c1ccc(-c2ccc(-c3cc4nc(O[C@@H]5CO[C@H]6[C@@H]5OC[C@H]6O)[nH]c4cc3Cl)cc2)cc1` [Compound 32, 1-(2-(4′-(6-chloro-2-(((3R,3aR,6R,6aR)-6-hydroxyhexahydrofuro[3,2-b]furan-3-yl)oxy)-1H-benzo [d]imidazol-5-yl)-[1,1′-biphenyl]-4-carboxamido)ethyl)-1,4-diazabicyclo[2.2.2]octan-1-ium formate], in series [1], the bioavailability (as a rule, dose-corrected exposure relative to a reference, in per cent) is below 1% and the Vd was below 1 L/kg. Also, in series [2] (20 mpk BID oral), the “Diarrhea Score Day 5, % Change vs. Vehicle” value is reported as −43%; the “Diarrhea Score Day 6, % Change vs. Vehicle” value is −52%; the “Diarrhea Score Day 5” value is on record as 0.63; the “Diarrhea Score Day 6” value was found to be 0.88.

For the compound `CN1CCN(Cc2ccc(-c3ccc(-c4cc5nc(O[C@@H]6CO[C@H]7[C@@H]6OC[C@H]7O)[nH]c5cc4Cl)cc3)cc2)CC1` [Compound 57, (3R,3aR,6R,6aR)-6-((6-chloro-5-(4′-((4-methylpiperazin-1-yl)methyl)-[1,1′-biphenyl]-4-yl)-1H-benzo[d]imidazol-2-yl)oxy)hexahydrofuro[3,2-b]furan-3-ol], the EC50 – broadly, the concentration needed to bring the measured effect to its halfway point – in series [3] amounted to 0.89 nM. Besides, in series [1], the bioavailability was below 10% and the Vd was below 5 L/kg.

Turning to `OCC(CO)NCc1ccc(-c2ccc(-c3cc4nc(O[C@@H]5CO[C@H]6[C@@H]5OC[C@H]6O)[nH]c4cc3Cl)cc2)cc1` [Compound 40, 2-(((4′-(6-chloro-2-(((3R,3aR,6R,6aR)-6-hydroxyhexahydrofuro[3,2-b]furan-3-yl)oxy)-1H-benzo[d]imidazol-5-yl)-[1,1′-biphenyl]-4-yl)methyl)amino)propane-1,3-diol], in series [1], the bioavailability is below 10% and the Vd was below 5 L/kg. Further, in series [2] (30 mpk BID oral), the “Diarrhea Score Day 5, % Change vs. Vehicle” value was −66%; the “Diarrhea Score Day 6, % Change vs. Vehicle” value is −59%; the “Diarrhea Score Day 5” value is given as 0.38; the “Diarrhea Score Day 6” value was found to be 0.75.

`CC(C)(C)NCC(O)COc1cccc2c1CC(O)C(O)C2` (stereo not shown) [Nadolol, nadolol, reference compound]: in series [4] (Caco-2), the “Mean Recovery A to B” value was 97.74%. Besides, in series [4] (Caco-2, pH 7.4), the “Mean Papp A to B” value is listed as 0.08 10^−6 cm/s.

For `OCC1(CO)CCN(Cc2ccc(-c3ccc(-c4cc5nc(O[C@@H]6CO[C@H]7[C@@H]6OC[C@H]7O)[nH]c5cc4Cl)cc3)cc2)CC1` [Compound 60, (1-((4′-(6-chloro-2-(((3R,3aR,6R,6aR)-6-hydroxyhexahydrofuro[3,2-b]furan-3-yl)oxy)-1H-benzo[d]imidazol-5-yl)-[1,1′-biphenyl]-4-yl)methyl)piperidine-4,4-diyl)dimethanol], the EC50 in series [3] stood at 0.85 nM. In addition, in series [1], the bioavailability was below 15% and the Vd was below 5 L/kg. In series [2] (30 mpk BID oral), the “Diarrhea Score Day 5, % Change vs. Vehicle” value was −71%; the “Diarrhea Score Day 6, % Change vs. Vehicle” value is −66%; the “Diarrhea Score Day 5” value is on record as 0.38; the “Diarrhea Score Day 6” value was found to be 0.38.

With `O=P(O)(O)c1ccc(-c2ccc(-c3nc4nc(O[C@@H]5CO[C@H]6[C@@H]5OC[C@H]6O)[nH]c4cc3Cl)cc2)cc1` [Compound 2, (4′-(6-chloro-2-(((3R,3aR,6R,6aR)-6-hydroxyhexahydrofuro[3,2-b]furan-3-yl)oxy)-1H-imidazo[4,5-b]pyridin-5-yl)-[1,1′-biphenyl]-4-yl)phosphonic acid], in series [3], the EC50 amounted to 1.4 nM. Also, in series [1], the bioavailability was below 1% and the Vd was below 5 L/kg. Moreover, in series [5], the “% Change in Average Total AUC (0-90 min) vs. Vehicle” value is “+6.6%” and the “change in blood glucose AUC vs. vehicle / systemic AMPK activation (in words)” value is “do not lead to activation of AMPK in skeletal muscle”.

Take `O=C(NC[C@H](O)[C@@H](O)[C@H](O)[C@H](O)CO)c1ccc(-c2ccc(-c3nc4nc(O[C@@H]5CO[C@H]6[C@@H]5OC[C@H]6O)[nH]c4cc3Cl)cc2)cc1` [Compound 1, 4′-(6-chloro-2-(((3R,3aR,6R,6aR)-6-hydroxyhexahydrofuro[3,2-b]furan-3-yl)oxy)-1H-imidazo [4,5-b]pyridin-5-yl)-N-((2S,3R,4R,5R)-2,3,4,5,6-pentahydroxyhexyl)-[1,1′-biphenyl]-4-carboxamide]: the EC50 in series [3] was 0.05 nM. For the same compound, in series [1], the bioavailability is below 1% and the Vd is below 5 L/kg. Moreover, in series [6] (Caco-2, pH 7.4), the apparent permeability from apical to basolateral (Papp A→B) – broadly, how fast a substance crosses the layer from the apical side – at 2 h, 2 μM was below 0.25 ×10⁻⁶ cm/s and the Papp B→A (in general, how fast a substance crosses the layer from the basolateral side) at 2 h, 2 μM stood at 0.73 ×10⁻⁶ cm/s. Further, the efflux ratio (in general, the permeability from basolateral to apical divided by that in the opposite direction, in the common usage) at 2 h, 2 μM in series [6] (Caco-2, pH 7.4, Efflux Ratio) was above 2. The recovery at 2 h, 2 μM in series [6] (Caco-2, pH 7.4, Mean Recovery A to B) is below 82.6%. This compound also came in with a recovery at 2 h, 2 μM in series [6] (Caco-2, pH 7.4, Mean Recovery B to A) of 89.9%. Moreover, the “permeability (in words)” value in series [4] (Caco-2) was “low permeability”. The “Efflux Ratio” value in series [4] (human, Caco-2, 2 h, 2 μM, pH 7.4) is recorded as above 2.90. Further, the “reduction of FITC-dextran permeation relative to vehicle” value in series [7] (0.1 μM) was determined as 33%. In addition, in series [7] (10 μM), the “reduction of FITC-dextran permeation relative to vehicle” value came out at 35%. Further, in series [5], the “% Change in Average Total AUC (0-90 min) vs. Vehicle” value was −7.5% and the “change in blood glucose AUC vs. vehicle / systemic AMPK activation (in words)” value was “do not lead to activation of AMPK in skeletal muscle”.
